System: human skin
Assay: Parasthesia irritation screening: one-gram drop placed on human skin, Parasthesia Irritation Rating (PIR)
Format: in vivo
Parameters: key: 0 = no discomfort, 4 = slight, 8 = noticeable, 12 = severe
Experimental: 1. Different ratios of active ingredient to IDPP are prepared for evaluation.
2. A one-gram drop of the ratio is placed on human skin. Only one drop is evaluated within a 24-hour period.
3. Irritation or sensitivity values are assigned according to the following scale (“Parasthesia Irritation Rating” or “PIR”): • 12=Severe • 8 =Noticeable discomfort • 4 =Slight discomfort • 0=No discomfort
4. If irritation is severe or noticeable at any time within a 24-hour period, the skin is washed and 5% lidocaine solution is applied to lessen discomfort.

[1] = ratio active agent:IDPP 0.67:1.00, within 24-hour period

SMILES	Parasthesia Irritation Rating (active agent 1.00 without IDPP (—), within 24-hour period)	Parasthesia Irritation Rating [1]	Parasthesia Irritation Rating (ratio active agent:IDPP 1.00:1.00, within 24-hour period)	Parasthesia Irritation Rating (ratio active agent:IDPP 1.50:1.00, within 24-hour period)	Parasthesia Irritation Rating (ratio active agent:IDPP 0.18:1.00, within 24-hour period)	Parasthesia Irritation Rating (ratio active agent:IDPP 0.21:1.00, within 24-hour period)	Parasthesia Irritation Rating (ratio active agent:IDPP 0.25:1.00, within 24-hour period)	Parasthesia Irritation Rating (ratio active agent:IDPP 0.33:1.00, within 24-hour period)	Parasthesia Irritation Rating (ratio active agent:IDPP 0.43:1.00, within 24-hour period)
CC(C)=CC1C(C(=O)OC(C#N)c2cccc(Oc3ccccc3)c2)C1(C)C (stereo not shown) [Cyphenothrin]	12.00	0.00	0.00	4.00	–	–	–	–	–
CC1(C)C(C=C(Cl)Cl)C1C(=O)OC(C#N)c1cccc(Oc2ccccc2)c1 (stereo not shown) [Cypermethrin]	–	12.00	–	–	0.00	0.00	4.00	12.00	12.00
